Measured values published in ChEMBL document CHEMBL1275504, “Detection of macrolide resistance in Mycoplasma pneumoniae by real-time PCR and high-resolution melt analysis” (2008).
Values after ≈ are worked out from the molar mass of the structure shown.

What was measured:
Assay type in all cases: functional
[1] = tested on: Mycoplasmoides pneumoniae; test: Antimicrobial activity against Mycoplasma pneumoniae isolate M129 by agar dilution method
[2] = tested on: Mycoplasmoides pneumoniae; test: Antimicrobial activity against Mycoplasma pneumoniae isolate FH by agar dilution method
[3] = tested on: Mycoplasmoides pneumoniae; test: Antimicrobial activity against macrolide-resistant Mycoplasma pneumoniae isolate 6 with A2604G mutation by agar dilution method
[4] = tested on: Mycoplasmoides pneumoniae; test: Antimicrobial activity against macrolide-resistant Mycoplasma pneumoniae isolate 11 with A2604G mutation by agar dilution method
[5] = tested on: Mycoplasmoides pneumoniae; test: Antimicrobial activity against macrolide-resistant Mycoplasma pneumoniae isolate 2p with A2604G mutation by agar dilution method
[6] = tested on: Mycoplasmoides pneumoniae; test: Antimicrobial activity against Mycoplasma pneumoniae isolate 18 by agar dilution method
[7] = tested on: Mycoplasmoides pneumoniae; test: Antimicrobial activity against Mycoplasma pneumoniae isolate 19 by agar dilution method
[8] = tested on: Mycoplasmoides pneumoniae; test: Antimicrobial activity against macrolide-resistant Mycoplasma pneumoniae isolate 685 with A2603G mutation by agar dilution method
[9] = tested on: Mycoplasmoides pneumoniae; test: Antimicrobial activity against macrolide-resistant Mycoplasma pneumoniae isolate 1006 with A2603G mutation by agar dilution method

| SMILES | MIC [1] [µg/mL] | MIC [2] [µg/mL] | MIC [3] [µg/mL] | MIC [4] [µg/mL] | MIC [5] [µg/mL] | MIC [6] [µg/mL] | MIC [7] [µg/mL] | MIC [8] [µg/mL] | MIC [9] [µg/mL] |
| --- | --- | --- | --- | --- | --- | --- | --- | --- | --- |
| CC[C@H]1OC(=O)[C@H](C)[C@@H](O[C@H]2C[C@@](C)(OC)[C@@H](O)[C@H](C)O2)[C@H](C)[C@@H](O[C@@H]2O[C@H](C)C[C@H](N(C)C)[C@H]2O)[C@](C)(O)C[C@@H](C)C(=O)[C@H](C)[C@@H](O)[C@]1(C)O [ERYTHROMYCIN] | 0.063 (≈ 0.0858 µM) | 0.063 (≈ 0.0858 µM) | 128 (≈ 174 µM) | 128 (≈ 174 µM) | 128 (≈ 174 µM) | 0.063 (≈ 0.0858 µM) | 0.063 (≈ 0.0858 µM) | 128 (≈ 174 µM) | 128 (≈ 174 µM) |
| CN(C)c1ccc(O)c2c1C[C@H]1C[C@H]3[C@H](N(C)C)C(O)=C(C(N)=O)C(=O)[C@@]3(O)C(O)=C1C2=O [MINOCYCLINE] | 0.25 (≈ 0.546 µM) | 0.25 (≈ 0.546 µM) | 0.125 (≈ 0.273 µM) | 0.125 (≈ 0.273 µM) | 0.25 (≈ 0.546 µM) | 0.125 (≈ 0.273 µM) | 0.125 (≈ 0.273 µM) | 0.125 (≈ 0.273 µM) | 0.125 (≈ 0.273 µM) |
| CN(C)[C@@H]1C(O)=C(C(N)=O)C(=O)[C@@]2(O)C(O)=C3C(=O)c4c(O)cccc4[C@@](C)(O)[C@H]3C[C@@H]12 [TETRACYCLINE] | 0.25 (≈ 0.563 µM) | 0.25 (≈ 0.563 µM) | 0.25 (≈ 0.563 µM) | 0.25 (≈ 0.563 µM) | 0.25 (≈ 0.563 µM) | 0.125 (≈ 0.281 µM) | 0.25 (≈ 0.563 µM) | 0.25 (≈ 0.563 µM) | 0.125 (≈ 0.281 µM) |
